{"source": "paper PMC5907398", "about": "“Inhibition of Acetylcholinesterase and Butyrylcholinesterase by a Plant Secondary Metabolite Boldine” (BioMed Research International, 2018)", "key": {"[1]": {"molecular_target": "T1, Acetylcholinesterase (AChE) (Homo sapiens, UniProt P22303)", "T1 construct": "human, recombinant (expressed in HEK 293 cells)", "T1 sequence (P22303 32-614)": "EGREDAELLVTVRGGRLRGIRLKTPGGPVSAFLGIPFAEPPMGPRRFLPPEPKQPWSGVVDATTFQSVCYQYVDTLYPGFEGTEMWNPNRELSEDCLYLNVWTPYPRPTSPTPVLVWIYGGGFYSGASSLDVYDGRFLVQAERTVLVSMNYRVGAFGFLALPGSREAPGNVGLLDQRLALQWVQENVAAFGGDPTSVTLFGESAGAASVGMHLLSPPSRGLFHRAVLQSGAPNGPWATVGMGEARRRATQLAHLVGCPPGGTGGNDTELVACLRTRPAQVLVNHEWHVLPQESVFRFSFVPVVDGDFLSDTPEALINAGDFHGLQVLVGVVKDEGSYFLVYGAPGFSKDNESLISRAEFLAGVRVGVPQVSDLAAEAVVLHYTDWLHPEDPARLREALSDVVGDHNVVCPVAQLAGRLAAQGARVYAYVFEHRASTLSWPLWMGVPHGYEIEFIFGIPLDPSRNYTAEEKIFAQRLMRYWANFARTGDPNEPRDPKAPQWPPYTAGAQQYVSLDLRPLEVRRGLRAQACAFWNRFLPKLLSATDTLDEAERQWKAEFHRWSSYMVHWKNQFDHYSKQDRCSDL", "assay": "Ellman spectrophotometric assay with acetylthiocholine, Dixon plot", "type": "biochemical", "details": "read-out: IC50 (μmol/l) by spectrophotometry"}, "[2]": {"molecular_target": "T2, Butyrylcholinesterase (BChE) (Homo sapiens, UniProt P06276)", "T2 construct": "from human serum", "T2 sequence (P06276 29-602)": "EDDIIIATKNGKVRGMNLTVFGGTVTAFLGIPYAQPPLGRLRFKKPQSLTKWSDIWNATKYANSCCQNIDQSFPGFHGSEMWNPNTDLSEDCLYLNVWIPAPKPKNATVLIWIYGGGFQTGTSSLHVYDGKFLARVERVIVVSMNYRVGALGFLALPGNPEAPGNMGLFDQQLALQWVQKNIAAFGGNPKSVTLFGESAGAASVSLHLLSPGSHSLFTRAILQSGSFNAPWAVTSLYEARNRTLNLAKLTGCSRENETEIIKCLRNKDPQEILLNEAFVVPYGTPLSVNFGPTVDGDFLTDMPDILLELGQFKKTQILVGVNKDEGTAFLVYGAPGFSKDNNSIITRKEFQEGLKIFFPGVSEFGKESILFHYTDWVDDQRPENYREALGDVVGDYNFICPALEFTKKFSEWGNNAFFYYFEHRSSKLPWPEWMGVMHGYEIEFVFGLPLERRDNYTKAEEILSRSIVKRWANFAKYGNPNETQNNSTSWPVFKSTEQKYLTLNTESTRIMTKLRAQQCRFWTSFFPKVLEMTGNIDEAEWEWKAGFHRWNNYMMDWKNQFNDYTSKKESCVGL", "assay": "Ellman spectrophotometric assay with butyrylthiocholine, Dixon plot", "type": "biochemical", "details": "read-out: IC50 (μmol/l) by spectrophotometry"}}}
{"smiles": "COc1cc2c(cc1O)C[C@H]1c3c(cc(O)c(OC)c3-2)CCN1C", "note": "[boldine, (S)-2,9-dihydroxy-1,10-dimethoxy-aporphine]", "values": [{"measurement": "IC50", "setting": "[1]", "value": 372, "unit": "µmol/L"}, {"measurement": "IC50", "setting": "[2]", "value": 322, "unit": "µmol/L"}]}
